Results taken from US11180462B2, “Microbiocidal oxadiazole derivatives” (SYNGENTA PARTICIPATIONS AG, priority 2015, dated 2021).

What was measured:
[1] = test system: Puccinia recondita f. Sp. Tritici; experiment: Fungicidal activity against Puccinia recondita f. sp. tritici / wheat / leaf disc curative (brown rust); format: in vivo; settings: foliar, 24 h, 200 ppm in the applied formulation, wheat leaf segments, curative (applied 1 day after inoculation), compared to untreated control leaf disks, read-out: disease control
Summary of the method: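 Curative leaf-segment test: compound diluted in water applied 1 day after spore inoculation of cv. Kanzler wheat segments on agar. Conditions 19° C, 75% RH, 12 h/12 h light cycle. Read-out: % disease control relative to untreated check, 6 to 8 days after application.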

Phakopsora Pachyrhizi = experiment: Fungicidal activity against Phakopsora pachyrhizi / soybean / leaf disc preventative (Asian soybean rust); format: in vivo; settings: foliar, 200 ppm in the applied formulation, soybean leaf disks, compared to untreated control leaf disks, read-out: disease control
Summary of the method: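 Scored 12 to 14 days post-application as percent control relative to untreated check discs, rust spores were sprayed under the disc one day after compound treatment. Incubation: 20°C, 75% rh, first 24–36 h in darkness, then 12 h daily light; discs kept on water agar.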

[2] = test system: Glomerella lagenarium (Colletotrichum lagenarium); experiment: Fungicidal activity against Glomerella lagenarium (Colletotrichum lagenarium) liquid culture / cucumber / preventative (anthracnose); format: cell-based; settings: Colletotrichum orbiculare; 20 ppm in the applied formulation; liquid culture (PDB), growth inhibition measured photometrically after 3 to 4 days; compared to untreated control; read-out: disease control
Summary of the method: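 Percent activity against the untreated check was derived from photometric growth measurements made 2 to 7 days after conidia in potato dextrose broth were combined with compound at 20 ppm. Cultures were kept dark at 24 °C and 96% humidity.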

[3] = test system: Puccinia recondita f. Sp. Tritici; experiment: Fungicidal activity against Puccinia recondita f. sp. tritici / wheat / leaf disc preventative (brown rust); format: in vivo; settings: foliar, 200 ppm in the applied formulation, wheat leaf segments, preventative, compared to untreated control leaf disks, read-out: disease control
Summary of the method: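 Percent disease control relative to untreated check segments is scored once disease develops, 7 to 9 days after application. Wheat cv. Kanzler segments receive compound spray (200 ppm in formulation) one day before spore inoculation, then sit at 19° C. and 75% rh under 12 h light/12 h dark.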

CON(Cc1ccc(-c2noc(C(F)(F)F)n2)cc1)C(=O)C1(c2ccccc2)CC1 [Compound 1.23, N-methoxy-1-phenyl-N-[[4-[5-(trifluoromethyl)-1,2,4-oxadiazol-3-yl]phenyl]methyl]-cyclopropane-carboxamide]
≥ 80%: pest or weed control at 200 ppm [1] | pest or weed control at 200 ppm (Phakopsora Pachyrhizi) | inhibition of growth at 20 ppm [2]

CCCCON(Cc1ccc(-c2noc(C(F)(F)F)n2)cc1)C(=O)C(C)CC (stereo not drawn) [Compound 1.640, N-butoxy-2-methyl-N-[[4-[5-(trifluoromethyl)-1,2,4-oxadiazol-3-yl]phenyl]methyl]-butanamide]
≥ 80%: pest or weed control at 200 ppm [3] | pest or weed control at 200 ppm [1] | pest or weed control at 200 ppm (Phakopsora Pachyrhizi)

COC(=O)N(Cc1ccc(-c2noc(C(F)(F)F)n2)cc1)OC [Compound 2.3, methyl N-methoxy-N-[[4-[5-(trifluoromethyl)-1,2,4-oxadiazol-3-yl]phenyl]methyl]carbamate]
≥ 80%: pest or weed control at 200 ppm [1] | pest or weed control at 200 ppm (Phakopsora Pachyrhizi) | inhibition of growth at 20 ppm [2]

CON(Cc1ccc(-c2noc(C(F)(F)F)n2)cc1)C(=O)N1CCOCC1 [Compound 3.1, N-methoxy-N-[[4-[5-(trifluoromethyl)-1,2,4-oxadiazol-3-yl]phenyl]methyl]-morpholine-4-carboxamide]
≥ 80%: pest or weed control at 200 ppm [1] | pest or weed control at 200 ppm (Phakopsora Pachyrhizi) | inhibition of growth at 20 ppm [2]

CC1(C(=O)N(CCO)Cc2ccc(-c3noc(C(F)(F)F)n3)cc2)COC1 [Compound 1.721, N-(2-hydroxyethyl)-3-methyl-N-[[4-[5-(trifluoromethyl)-1,2,4-oxadiazol-3-yl]phenyl]methyl]-oxetane-3-carboxamide]
≥ 80%: pest or weed control at 200 ppm [3] | pest or weed control at 200 ppm [1] | pest or weed control at 200 ppm (Phakopsora Pachyrhizi)

O=C(C1CCCO1)N(Cc1ccc(-c2noc(C(F)(F)F)n2)cc1)C1COC1 (stereo not drawn) [Compound 1.747, N-(oxetan-3-yl)-N-[[4-[5-(trifluoromethyl)-1,2,4-oxadiazol-3-yl]phenyl]methyl]-tetrahydrofuran-2-carboxamide]
≥ 80%: pest or weed control at 200 ppm [3] | pest or weed control at 200 ppm [1] | pest or weed control at 200 ppm (Phakopsora Pachyrhizi)

C#CCN(Cc1ccc(-c2noc(C(F)(F)F)n2)cc1)C(=O)C(C)OC (stereo not drawn) [Compound 1.200, 2-methoxy-N-prop-2-ynyl-N-[[4-[5-(trifluoromethyl)-1,2,4-oxadiazol-3-yl]phenyl]methyl]-propanamide]
≥ 80%: pest or weed control at 200 ppm [3] | pest or weed control at 200 ppm [1] | pest or weed control at 200 ppm (Phakopsora Pachyrhizi)

CCCC(=O)N(Cc1ccc(-c2noc(C(F)(F)F)n2)cc1)CC1CC1 [Compound 1.210, N-(cyclopropylmethyl)-N-[[4-[5-(trifluoromethyl)-1,2,4-oxadiazol-3-yl]phenyl]methyl]-butanamide]
≥ 80%: pest or weed control at 200 ppm [1] | pest or weed control at 200 ppm (Phakopsora Pachyrhizi) | inhibition of growth at 20 ppm [2]

C#CCN(Cc1ccc(-c2noc(C(F)(F)F)n2)cc1)C(=O)C1CSC1 [Compound 1.172, N-prop-2-ynyl-N-[[4-[5-(trifluoromethyl)-1,2,4-oxadiazol-3-yl]phenyl]methyl]-thietane-3-carboxamide]
≥ 80%: pest or weed control at 200 ppm [3] | pest or weed control at 200 ppm [1] | pest or weed control at 200 ppm (Phakopsora Pachyrhizi)

N#CCC(=O)N(Cc1ccc(-c2noc(C(F)(F)F)n2)cc1)C1COC1 [Compound 1.748, 2-cyano-N-(oxetan-3-yl)-N-[[4-[5-(trifluoromethyl)-1,2,4-oxadiazol-3-yl]phenyl]methyl]-acetamide]
≥ 80%: pest or weed control at 200 ppm [3] | pest or weed control at 200 ppm [1] | pest or weed control at 200 ppm (Phakopsora Pachyrhizi)

CC1(C(=O)OCCN(Cc2ccc(-c3noc(C(F)(F)F)n3)cc2)C(=O)C2(C)COC2)COC1 [Compound 1.722, 2-[(3-methyloxetane-3-carbonyl)-[[4-[5-(trifluoromethyl)-1,2,4-oxadiazol-3-yl]phenyl]methyl]-amino]ethyl 3-methyloxetane-3-carboxylate]
≥ 80%: pest or weed control at 200 ppm [3] | pest or weed control at 200 ppm [1] | pest or weed control at 200 ppm (Phakopsora Pachyrhizi)

CC1(C(=O)N(Cc2ccc(-c3noc(C(F)(F)F)n3)cc2)C2COC2)COC1 [Compound 1.744, 3-methyl-N-(oxetan-3-yl)-N-[[4-[5-(trifluoromethyl)-1,2,4-oxadiazol-3-yl]phenyl]methyl]-oxetane-3-carboxamide]
≥ 80%: pest or weed control at 200 ppm [3] | pest or weed control at 200 ppm [1] | pest or weed control at 200 ppm (Phakopsora Pachyrhizi)

O=C(C1CC1(F)F)N(Cc1ccc(-c2noc(C(F)(F)F)n2)cc1)CC1CC1 (stereo not drawn) [Compound 1.207, N-(cyclopropylmethyl)-2,2-difluoroN-[[4-[5-(trifluoromethyl)-1,2,4-oxadiazol-3-yl]phenyl]methyl]-cyclopropane-carboxamide]
≥ 80%: pest or weed control at 200 ppm [1] | pest or weed control at 200 ppm (Phakopsora Pachyrhizi) | inhibition of growth at 20 ppm [2]

COCCC(=O)N(Cc1ccc(-c2noc(C(F)(F)F)n2)cc1)CC(F)(F)F [Compound 1.693, 3-methoxy-N-(2,2,2-trifluoroethyl)-N-[[4-[5-(trifluoromethyl)-1,2,4-oxadiazol-3-yl]phenyl]methyl]-propanamide]
≥ 80%: pest or weed control at 200 ppm [1] | pest or weed control at 200 ppm (Phakopsora Pachyrhizi) | inhibition of growth at 20 ppm [2]

O=C(C1CC1)N(Cc1ccc(-c2noc(C(F)(F)F)n2)cc1)CC(F)(F)F [Compound 1.586, N-(2,2,2-trifluoroethyl)-N-[[4-[5-(trifluoromethyl)-1,2,4-oxadiazol-3-yl]phenyl]methyl]-cyclopropane-carboxamide]
≥ 80%: pest or weed control at 200 ppm [1] | pest or weed control at 200 ppm (Phakopsora Pachyrhizi) | inhibition of growth at 20 ppm [2]

CC1(C(=O)ON(Cc2ccc(-c3noc(C(F)(F)F)n3)cc2)C(=O)C2(C)COC2)COC1 [Compound 1.767, [(3-methyloxetane-3-carbonyl)-[[4-[5-(trifluoromethyl)-1,2,4-oxadiazol-3-yl]phenyl]methyl]-amino] 3-methyloxelane-3-carboxylate]
≥ 80%: pest or weed control at 200 ppm [3] | pest or weed control at 200 ppm [1] | pest or weed control at 200 ppm (Phakopsora Pachyrhizi)

COC(C)C(=O)N(CCO)Cc1ccc(-c2noc(C(F)(F)F)n2)cc1 (stereo not drawn) [Compound 1.731, N-(2-hydroxyethyl)-2-methoxy-N-[[4-[5-(trifluoromethyl)-1,2,4-oxadiazol-3-yl]phenyl]methyl]-propanamide]
≥ 80%: pest or weed control at 200 ppm [3] | pest or weed control at 200 ppm [1] | pest or weed control at 200 ppm (Phakopsora Pachyrhizi)

O=C(C1CCOC1)N(CCO)Cc1ccc(-c2noc(C(F)(F)F)n2)cc1 (stereo not drawn) [Compound 1.711, N-(2-hydroxyethyl)-N-[[4-[5-(trifluoromethyl)-1,2,4-oxadiazol-3-yl]phenyl]methyl]-tetrahydrofuran-3-carboxamide]
≥ 80%: pest or weed control at 200 ppm [3] | pest or weed control at 200 ppm [1] | pest or weed control at 200 ppm (Phakopsora Pachyrhizi)

CCC(=O)N(Cc1ccc(-c2noc(C(F)(F)F)n2)cc1F)OC [Compound 1.568, N-[[2-fluoro-4-[5-(trifluoromethyl)-1,2,4-oxadiazol-3-yl]phenyl]methyl]-N-methoxy-propanamide]
≥ 80%: pest or weed control at 200 ppm [1] | pest or weed control at 200 ppm (Phakopsora Pachyrhizi) | inhibition of growth at 20 ppm [2]

CCC(=O)N(Cc1ccc(-c2noc(C(F)(F)F)n2)cn1)OC [Compound 1.571, N-methoxy-N-[[5-[5-(trifluoromethyl)-1,2,4-oxadiazol-3-yl]-2-pyridyl]methyl]-propanamide]
≥ 80%: pest or weed control at 200 ppm [1] | pest or weed control at 200 ppm (Phakopsora Pachyrhizi) | inhibition of growth at 20 ppm [2]

CON(Cc1ccc(-c2noc(C(F)(F)F)n2)cc1)C(=O)c1ccc(Cl)cc1 [Compound 1.71, 4-chloro-N-methoxy-N-[[4-[5-(trifluoromethyl)-1,2,4-oxadiazol-3-yl]phenyl]methyl]-benzamide]
≥ 80%: pest or weed control at 200 ppm [1] | pest or weed control at 200 ppm (Phakopsora Pachyrhizi) | inhibition of growth at 20 ppm [2]

CCOCC(=O)N(Cc1ccc(-c2noc(C(F)(F)F)n2)cc1)C(C)CC (stereo not drawn) [Compound 1.383, 2-ethoxy-N-sec-butyl-N-[[4-[5-(trifluoromethyl)-1,2,4-oxadiazol-3-yl]phenyl]methyl]-acetamide]
≥ 80%: pest or weed control at 200 ppm [3] | pest or weed control at 200 ppm [1] | pest or weed control at 200 ppm (Phakopsora Pachyrhizi)

O=C(OCCN(Cc1ccc(-c2noc(C(F)(F)F)n2)cc1)C(=O)C1CCOC1)C1CCOC1 (stereo not drawn) [Compound 1.712, 2-(tetrahydrofuran-3-carbonyl-[[4-[5-(trifluoromethyl)-1,2,4-oxadiazol-3-yl]phenyl]methyl]-amino]ethyl tetrahydrofuran-3-carboxylate]
≥ 80%: pest or weed control at 200 ppm [3] | pest or weed control at 200 ppm [1] | pest or weed control at 200 ppm (Phakopsora Pachyrhizi)

COCCOC(=O)N(Cc1ccc(-c2noc(C(F)(F)F)n2)cc1)OC [Compound 2.2, 2-methoxyethyl N-methoxy-N-[[4-[5-(trifluoromethyl)-1,2,4-oxadiazol-3-yl]phenyl]methyl]-carbamate]
≥ 80%: pest or weed control at 200 ppm [1] | pest or weed control at 200 ppm (Phakopsora Pachyrhizi) | inhibition of growth at 20 ppm [2]
